Values quoted from earlier work in patent publication US5246920A, “Treatment of hyperprolactinemia” (University of South Florida, priority 1992, dated 1993).
Where no end group is shown, it is not given here. [ ]: non-standard residue; d: D form.

System: old rats
Details: peptides given individually

Substance	sensitivity of old rats to the individually administered peptides, in words
H[dW]AW[dF]K-NH2 [GHRP-6]	relatively insensitive
GHRH: Natural growth hormone releasing hormone, also known as growth hormone releasing factor (GHRF or GRF) (YADAIFTNSYRKVLGQLSARKLLQDIMSRQQGESNQERGARARL; ends and bridges not checked; UniProt P01286 32-75, looked up)	relatively insensitive
